Results published in patent publication US7122193B1 (priority 1994, dated 2006).

Key:
I-A^d class II molecules = I-A^d class II molecules (Mus musculus, UniProt P01921+P04228); type: cell-based
I-E^d class II molecules = I-E^d class II molecules (Mus musculus, UniProt P01904+P01915); type: cell-based
Sequence of I-E^d class II molecules (P01904 26-255 limits assumed): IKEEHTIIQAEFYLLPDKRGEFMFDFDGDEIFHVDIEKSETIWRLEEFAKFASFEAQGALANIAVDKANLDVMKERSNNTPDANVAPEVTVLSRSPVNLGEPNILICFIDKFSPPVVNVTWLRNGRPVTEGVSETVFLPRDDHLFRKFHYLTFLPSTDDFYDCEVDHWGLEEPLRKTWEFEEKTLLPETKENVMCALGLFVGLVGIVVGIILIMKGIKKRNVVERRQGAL
Sequence of I-E^d class II molecules (P01915 27-264 limits assumed): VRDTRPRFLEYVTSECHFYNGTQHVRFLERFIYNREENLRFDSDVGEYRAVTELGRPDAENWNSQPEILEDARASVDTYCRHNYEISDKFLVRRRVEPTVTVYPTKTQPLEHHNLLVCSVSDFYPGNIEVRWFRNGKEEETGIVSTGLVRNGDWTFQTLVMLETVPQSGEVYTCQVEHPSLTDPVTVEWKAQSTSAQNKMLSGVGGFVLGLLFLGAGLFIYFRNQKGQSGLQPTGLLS

Sequence of I-A^d class II molecules (P04228 24-256 limits assumed): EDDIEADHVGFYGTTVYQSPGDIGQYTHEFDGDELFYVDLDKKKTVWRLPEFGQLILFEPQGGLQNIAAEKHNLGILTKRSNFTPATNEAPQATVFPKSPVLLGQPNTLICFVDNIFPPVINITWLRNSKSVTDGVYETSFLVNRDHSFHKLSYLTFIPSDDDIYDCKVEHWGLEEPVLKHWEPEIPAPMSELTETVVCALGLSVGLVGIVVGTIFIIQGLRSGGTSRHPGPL
Sequence of I-A^d class II molecules (P01921 28-265 limits assumed): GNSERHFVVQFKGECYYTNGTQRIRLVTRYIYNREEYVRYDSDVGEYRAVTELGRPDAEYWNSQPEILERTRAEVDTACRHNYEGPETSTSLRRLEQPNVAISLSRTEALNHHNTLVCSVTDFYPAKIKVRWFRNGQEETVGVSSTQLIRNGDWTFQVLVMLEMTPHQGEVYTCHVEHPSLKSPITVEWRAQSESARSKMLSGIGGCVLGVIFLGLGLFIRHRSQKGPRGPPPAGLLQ

CH3CO-(D)Thr-(D)Asp-(D)Lys-(D)Tyr-(D)Thr-(D)Ile-(D)Lys-(D)Trp-(D)Val-(D)Ala-(D)Phe-(D)Leu-(D)Lys-NH2
binding to I-A^d transfected fibroblasts, in words (I-A^d class II molecules): Neither the L- nor the retro-inverso peptides bound
inhibition (of IL-2 production / binding of cI 12–26) (I-E^d class II molecules): up to 56%
